{"source": "patent US10668040B2", "about": "“Treatment of urea cycle disorders in neonates and infants” (Horizon Therapeutics, LLC, priority 2017, dated 2020)", "test_system": "UCD patients", "experiment": "Example 3: TEAEs, serious and non-serious adverse events", "assay_type": "in vivo", "text": "Sixteen newborn infants aged 0 to 27 days, and 10 infants and toddlers aged 28 days to 23 months received RAVICTI Oral Liquid administered just prior to breastfeeding or intake of formula or food. The recommended dosing regimen was 3-6 times per day depending on feeding schedule.\nNumber of Subjects with Treatment-Emergent Adverse Events (TEAEs), Serious TEAEs, Deaths, and Discontinuations Due to TEAEs\nAn adverse event (AE) is any untoward medical occurrence, whether or not the event is considered related to the study drug. A serious AE is any AE that: results in death; is life threatening; requires hospitalization or prolongation of existing hospitalization; results in disability/incapacity; is a congenital anomaly/birth defect; is an important medical event. TEAEs are defined as AEs with an onset date on or after the first dose of study medication until study discontinuation. The Investigator assessed the causal relationship of each TEAE to the study drug as not related, possibly related, or probably related. From the first dose of study treatment through 30 days after the final dose (mean [SD] duration of treatment was 9.13 [6.838] months)."}
{"smiles": "O=C(CCCc1ccccc1)OCC(COC(=O)CCCc1ccccc1)OC(=O)CCCc1ccccc1", "note": "[RAVICTI, benzenebutanoic acid, 1′,1″-(1,2,3-propanetriyl) ester]", "values": [{"measurement": "Number of Deaths (All Causes)", "setting": "Age 0 to <2 Months", "value": 0}, {"measurement": "Serious AE Ammonia Increased: Deaths causally related to treatment/all", "setting": "Age 0 to <2 Months", "value": "0/0"}, {"measurement": "Serious AE Ammonia Increased: Occurrences causally related to treatment/all", "setting": "Age 0 to <2 Months", "value": "0/0"}, {"measurement": "Serious AE Apnoeic Attack: Deaths causally related to treatment/all", "setting": "Age 0 to <2 Months", "value": "0/0"}, {"measurement": "Serious AE Apnoeic Attack: Occurrences causally related to treatment/all", "setting": "Age 0 to <2 Months", "value": "0/0"}, {"measurement": "Serious AE Asthma: Deaths causally related to treatment/all", "setting": "Age 0 to <2 Months", "value": "0/0"}, {"measurement": "Serious AE Asthma: Occurrences causally related to treatment/all", "setting": "Age 0 to <2 Months", "value": "0/0"}, {"measurement": "Serious AE Atelectasis: Deaths causally related to treatment/all", "setting": "Age 0 to <2 Months", "value": "0/0"}, {"measurement": "Serious AE Atelectasis: Occurrences causally related to treatment/all", "setting": "Age 0 to <2 Months", "value": "0/1"}, {"measurement": "Serious AE Bacteraemia: Deaths causally related to treatment/all", "setting": "Age 0 to <2 Months", "value": "0/0"}, {"measurement": "Serious AE Bacteraemia: Occurrences causally related to treatment/all", "setting": "Age 0 to <2 Months", "value": "0/1"}, {"measurement": "Serious AE Cellulitis: Deaths causally related to treatment/all", "setting": "Age 0 to <2 Months", "value": "0/0"}, {"measurement": "Serious AE Cellulitis: Occurrences causally related to treatment/all", "setting": "Age 0 to <2 Months", "value": "0/1"}, {"measurement": "Serious AE Croup infectious: Deaths causally related to treatment/all", "setting": "Age 0 to <2 Months", "value": "0/0"}, {"measurement": "Serious AE Croup infectious: Occurrences causally related to treatment/all", "setting": "Age 0 to <2 Months", "value": "0/1"}, {"measurement": "Serious AE Cyanosis: Deaths causally related to treatment/all", "setting": "Age 0 to <2 Months", "value": "0/0"}, {"measurement": "Serious AE Cyanosis: Occurrences causally related to treatment/all", "setting": "Age 0 to <2 Months", "value": "0/0"}, {"measurement": "Serious AE Dehydration: Deaths causally related to treatment/all", "setting": "Age 0 to <2 Months", "value": "0/0"}, {"measurement": "Serious AE Dehydration: Occurrences causally related to treatment/all", "setting": "Age 0 to <2 Months", "value": "0/1"}, {"measurement": "Serious AE Device related infection: Deaths causally related to treatment/all", "setting": "Age 0 to <2 Months", "value": "0/0"}, {"measurement": "Serious AE Device related infection: Occurrences causally related to treatment/all", "setting": "Age 0 to <2 Months", "value": "0/1"}, {"measurement": "Serious AE Feeding Disorder: Deaths causally related to treatment/all", "setting": "Age 0 to <2 Months", "value": "0/0"}, {"measurement": "Serious AE Feeding Disorder: Occurrences causally related to treatment/all", "setting": "Age 0 to <2 Months", "value": "0/1"}, {"measurement": "Serious AE Gastroenteritis: Deaths causally related to treatment/all", "setting": "Age 0 to <2 Months", "value": "0/0"}, {"measurement": "Serious AE Gastroenteritis: Occurrences causally related to treatment/all", "setting": "Age 0 to <2 Months", "value": "0/0"}, {"measurement": "Serious AE Hyperammonaemia: Deaths causally related to treatment/all", "setting": "Age 0 to <2 Months", "value": "0/0"}, {"measurement": "Serious AE Hyperammonaemia: Occurrences causally related to treatment/all", "setting": "Age 0 to <2 Months", "value": "0/7"}, {"measurement": "Serious AE Influenza: Deaths causally related to treatment/all", "setting": "Age 0 to <2 Months", "value": "0/0"}, {"measurement": "Serious AE Influenza: Occurrences causally related to treatment/all", "setting": "Age 0 to <2 Months", "value": "0/0"}, {"measurement": "Serious AE Lethargy: Deaths causally related to treatment/all", "setting": "Age 0 to <2 Months", "value": "0/0"}, {"measurement": "Serious AE Lethargy: Occurrences causally related to treatment/all", "setting": "Age 0 to <2 Months", "value": "0/1"}, {"measurement": "Serious AE Medical device site infection: Deaths causally related to treatment/all", "setting": "Age 0 to <2 Months", "value": "0/0"}, {"measurement": "Serious AE Medical device site infection: Occurrences causally related to treatment/all", "setting": "Age 0 to <2 Months", "value": "0/1"}, {"measurement": "Serious AE Meningitis bacterial: Deaths causally related to treatment/all", "setting": "Age 0 to <2 Months", "value": "0/0"}, {"measurement": "Serious AE Meningitis bacterial: Occurrences causally related to treatment/all", "setting": "Age 0 to <2 Months", "value": "0/1"}, {"measurement": "Serious AE Neutropenia: Deaths causally related to treatment/all", "setting": "Age 0 to <2 Months", "value": "0/0"}, {"measurement": "Serious AE Neutropenia: Occurrences causally related to treatment/all", "setting": "Age 0 to <2 Months", "value": "0/1"}, {"measurement": "Serious AE Peritonitis: Deaths causally related to treatment/all", "setting": "Age 0 to <2 Months", "value": "0/0"}, {"measurement": "Serious AE Peritonitis: Occurrences causally related to treatment/all", "setting": "Age 0 to <2 Months", "value": "0/0"}, {"measurement": "Serious AE Pneumatosis intestinalis: Deaths causally related to treatment/all", "setting": "Age 0 to <2 Months", "value": "0/0"}, {"measurement": "Serious AE Pneumatosis intestinalis: Occurrences causally related to treatment/all", "setting": "Age 0 to <2 Months", "value": "0/0"}, {"measurement": "Serious AE Pyrexia: Deaths causally related to treatment/all", "setting": "Age 0 to <2 Months", "value": "0/0"}, {"measurement": "Serious AE Pyrexia: Occurrences causally related to treatment/all", "setting": "Age 0 to <2 Months", "value": "0/0"}, {"measurement": "Serious AE Respiratory syncytial virus infection: Deaths causally related to treatment/all", "setting": "Age 0 to <2 Months", "value": "0/0"}, {"measurement": "Serious AE Respiratory syncytial virus infection: Occurrences causally related to treatment/all", "setting": "Age 0 to <2 Months", "value": "0/1"}, {"measurement": "Serious AE Rhinovirus infection: Deaths causally related to treatment/all", "setting": "Age 0 to <2 Months", "value": "0/0"}, {"measurement": "Serious AE Rhinovirus infection: Occurrences causally related to treatment/all", "setting": "Age 0 to <2 Months", "value": "0/0"}, {"measurement": "Serious AE Status asthmaticus: Deaths causally related to treatment/all", "setting": "Age 0 to <2 Months", "value": "0/0"}, {"measurement": "Serious AE Status asthmaticus: Occurrences causally related to treatment/all", "setting": "Age 0 to <2 Months", "value": "0/0"}, {"measurement": "Serious AE Tracheitis: Deaths causally related to treatment/all", "setting": "Age 0 to <2 Months", "value": "0/0"}, {"measurement": "Serious AE Tracheitis: Occurrences causally related to treatment/all", "setting": "Age 0 to <2 Months", "value": "0/1"}, {"measurement": "Serious AE Upper respiratory tract infection: Deaths causally related to treatment/all", "setting": "Age 0 to <2 Months", "value": "0/0"}, {"measurement": "Serious AE Upper respiratory tract infection: Occurrences causally related to treatment/all", "setting": "Age 0 to <2 Months", "value": "0/1"}, {"measurement": "Serious AE Urinary tract infection: Deaths causally related to treatment/all", "setting": "Age 0 to <2 Months", "value": "0/0"}, {"measurement": "Serious AE Urinary tract infection: Occurrences causally related to treatment/all", "setting": "Age 0 to <2 Months", "value": "0/1"}, {"measurement": "Serious AE Viral infection: Deaths causally related to treatment/all", "setting": "Age 0 to <2 Months", "value": "0/0"}, {"measurement": "Serious AE Viral infection: Occurrences causally related to treatment/all", "setting": "Age 0 to <2 Months", "value": "0/1"}, {"measurement": "Serious AE Viral upper respiratory tract infection: Deaths causally related to treatment/all", "setting": "Age 0 to <2 Months", "value": "0/0"}, {"measurement": "Serious AE Viral upper respiratory tract infection: Occurrences causally related to treatment/all", "setting": "Age 0 to <2 Months", "value": "0/0"}, {"measurement": "Serious AE Vomiting: Deaths causally related to treatment/all", "setting": "Age 0 to <2 Months", "value": "0/0"}, {"measurement": "Serious AE Vomiting: Occurrences causally related to treatment/all", "setting": "Age 0 to <2 Months", "value": "0/2"}, {"measurement": "Number of Deaths (All Causes)", "setting": "Age 2 Months to <2 Years", "value": 1}, {"measurement": "Serious AE Ammonia Increased: Deaths causally related to treatment/all", "setting": "Age 2 Months to <2 Years", "value": "0/0"}, {"measurement": "Serious AE Ammonia Increased: Occurrences causally related to treatment/all", "setting": "Age 2 Months to <2 Years", "value": "0/1"}, {"measurement": "Serious AE Apnoeic Attack: Deaths causally related to treatment/all", "setting": "Age 2 Months to <2 Years", "value": "0/0"}, {"measurement": "Serious AE Apnoeic Attack: Occurrences causally related to treatment/all", "setting": "Age 2 Months to <2 Years", "value": "0/2"}, {"measurement": "Serious AE Asthma: Deaths causally related to treatment/all", "setting": "Age 2 Months to <2 Years", "value": "0/0"}, {"measurement": "Serious AE Asthma: Occurrences causally related to treatment/all", "setting": "Age 2 Months to <2 Years", "value": "0/1"}, {"measurement": "Serious AE Atelectasis: Deaths causally related to treatment/all", "setting": "Age 2 Months to <2 Years", "value": "0/0"}, {"measurement": "Serious AE Atelectasis: Occurrences causally related to treatment/all", "setting": "Age 2 Months to <2 Years", "value": "0/0"}, {"measurement": "Serious AE Bacteraemia: Deaths causally related to treatment/all", "setting": "Age 2 Months to <2 Years", "value": "0/0"}, {"measurement": "Serious AE Bacteraemia: Occurrences causally related to treatment/all", "setting": "Age 2 Months to <2 Years", "value": "0/0"}, {"measurement": "Serious AE Cellulitis: Deaths causally related to treatment/all", "setting": "Age 2 Months to <2 Years", "value": "0/0"}, {"measurement": "Serious AE Cellulitis: Occurrences causally related to treatment/all", "setting": "Age 2 Months to <2 Years", "value": "0/0"}, {"measurement": "Serious AE Croup infectious: Deaths causally related to treatment/all", "setting": "Age 2 Months to <2 Years", "value": "0/0"}, {"measurement": "Serious AE Croup infectious: Occurrences causally related to treatment/all", "setting": "Age 2 Months to <2 Years", "value": "0/1"}, {"measurement": "Serious AE Cyanosis: Deaths causally related to treatment/all", "setting": "Age 2 Months to <2 Years", "value": "0/0"}, {"measurement": "Serious AE Cyanosis: Occurrences causally related to treatment/all", "setting": "Age 2 Months to <2 Years", "value": "0/2"}, {"measurement": "Serious AE Dehydration: Deaths causally related to treatment/all", "setting": "Age 2 Months to <2 Years", "value": "0/0"}, {"measurement": "Serious AE Dehydration: Occurrences causally related to treatment/all", "setting": "Age 2 Months to <2 Years", "value": "0/0"}, {"measurement": "Serious AE Device related infection: Deaths causally related to treatment/all", "setting": "Age 2 Months to <2 Years", "value": "0/0"}, {"measurement": "Serious AE Device related infection: Occurrences causally related to treatment/all", "setting": "Age 2 Months to <2 Years", "value": "0/0"}, {"measurement": "Serious AE Feeding Disorder: Deaths causally related to treatment/all", "setting": "Age 2 Months to <2 Years", "value": "0/0"}]}
